Measured values from PMC11096667 (Cell reports, 2024).

B1: C-terminally truncated mouse TRPM7 (residues 1-1280) (domain or fragment, UniProt Q923J1 1-1280, looked up)
chain: MSQKSWIESTLTKRECVYIIPSSKDPHRCLPGCQICQQLVRCFCGRLVKQHACFTASLAMKYSDVKLGEHFNQAIEEWSVEKHTEQSPTDAYGVINFQGGSHSYRAKYVRLSYDTKPEIILQLLLKEWQMELPKLVISVHGGMQKFELHPRIKQLLGKGLIKAAVTTGAWILTGGVNTGVAKHVGDALKEHASRSSRKICTIGIAPWGVIENRNDLVGRDVVAPYQTLLNPLSKLNVLNNLHSHFILVDDGTVGKYGAEVRLRRELEKTINQQRIHARIGQGVPVVALIFEGGPNVILTVLEYLQESPPVPVVVCEGTGRAADLLAYIHKQTEEGGNLPDAAEPDIISTIKKTFNFGQSEAVHLFQTMMECMKKKELITVFHIGSEDHQDIDVAILTALLKGTNASAFDQLILTLAWDRVDIAKNHVFVYGQQWLVGSLEQAMLDALVMDRVSFVKLLIENGVSMHKFLTIPRLEELYNTKQGPTNPMLFHLIRDVKQGNLPPGYKITLIDIGLVIEYLMGGTYRCTYTRKRFRLIYNSLGGNNRRSGRNTSSSTPQLRKSHETFGNRADKKEKMRHNHFIKTAQPYRPKMDASMEEGKKKRTKDEIVDIDDPETKRFPYPLNELLIWACLMKRQVMARFLWQHGEESMAKALVACKIYRSMAYEAKQSDLVDDTSEELKQYSNDFGQLAVELLEQSFRQDETMAMKLLTYELKNWSNSTCLKLAVSSRLRPFVAHTCTQMLLSDMWMGRLNMRKNSWYKVILSILVPPAILMLEYKTKAEMSHIPQSQDAHQMTMEDSENNFHNITEEIPMEVFKEVKILDSSDGKNEMEIHIKSKKLPITRKFYAFYHAPIVKFWFNTLAYLGFLMLYTFVVLVKMEQLPSVQEWIVIAYIFTYAIEKVREVFMSEAGKISQKIKVWFSDYFNVSDTIAIISFFVGFGLRFGAKWNYINAYDNHVFVAGRLIYCLNIIFWYVRLLDFLAVNQQAGPYVMMIGKMVANMFYIVVIMALVLLSFGVPRKAILYPHEEPSWSLAKDIVFHPYWMIFGEVYAYEIDVCANDSTLPTICGPGTWLTPFLQAVYLFVQYIIMVNLLIAFFNNVYLQVKAISNIVWKYQRYHFIMAYHEKPVLPPPLIILSHIVSLFCCVCKRRKKDKTSDGPKLFLTEEDQKKLHDFEEQCVEMYFDEKDDKFNSGSEERIRVTFERVEQMSIQIKEVGDRVNYIKRSLQSLDSQIGHLQDLSALTVDTLKTLTAQKASEASKVHNEITRELSISKHLAQNLID

Tests used:
TRPM7 = conditions: cited from earlier work
TRPM6 = conditions: cited from earlier work
cryo-EM structure = target: the molecule itself; experiment: cryo-EM structure

Molecule | inhibition of TRPM7 (TRPM7) | inhibition of TRPM6 (TRPM6) | activity against TRPM6 (TRPM6) | stoichiometry N (cryo-EM structure)
c1ccc2c(c1)CCC[C@H]2Nc1nc2ccccc2[nH]1 [NS8593] | inhibits | inhibits | – | –
N#Cc1ccc(COC[C@H]2O[C@@H](n3c(NCc4ccc(Cl)c(Cl)c4)nc4c(N)ncnc43)[C@H](O)[C@@H]2O)cc1 [VER155008] | potent inhibitor | – | inactive | –
B1 | – | – | – | 4
